Consider two compounds from patent US10905691B2, “Use of triazolo(4,5-d)pyrimidine derivatives for prevention and treatment of bacterial infection” (Universite de Liege, priority 2016, dated 2021).

Assay [1] deals with E. faecalis vancomycin-resistant (VRE) ATCC BAA-2365. The experiment in a line: MIC determination (EUCAST, Mueller-Hinton broth). In kind it is cell-based. The note with it: Enterococcus faecalis. How it is done: Further experiments were conducted using different strains of E. faecalis, as clinically relevant Gram-positive bacterial strains: E. faecalis vancomycin-resistant (VRE) ATCC BAA-2365, and E. faecalis ATCC 29212 in order to determine the Minimal Inhibitory Concentration (MIC) which is the minimal concentration required to prevent bacterial growth; the Minimal Bactericidal Concentration (MBC) which determines the lowest concentration at which an antimicrobial agent kill a particular microorganism and a Minimum Duration for killing 99.9% bacteria (MDK99.9) which is a tolerance metric according to the EUCAST.
MIC determination: A single colony selected from the different strains of E. faecalis is resuspended and cultured in the appropriate medium overnight (O/N) in aerobic conditions (37° C. with 220 rpm shaking), next day a 1:100 inoculum in Mueller-Hinton broth (MHB) was incubated in aerobic conditions for 3 hr (OD=0.08-0.1) and an inoculum of 1:300 dilution, corresponding to 3×10^5 CFU/ml, was incubated in presence or absence of different concentrations of Triafluocyl in 1% DMSO. […]
The Minimal Inhibitory Concentration (MIC) and the Minimal Bactericidal Concentration (MBC) of Fluometacyl were determined on several gram-positive strains (Table 2) following EUCAST (European Committee on Antimicrobial susceptibility Testing) recommendations. […]

For assay [2], the system named is Escherichia coli (ATCC 8739). The experiment in a line: MIC determination with or without polymyxin B nonapeptide (PMBN). The following applies: for MIC: Escherichia coli, ATCC8739, in presence of 40 μg/ml PMBN; for inhibition of E. coli growth: taken alone, concentrations up to 15 μg/ml. Type of assay: cell-based. How it is done: Determination of Minimal Inhibitory Concentration (MIC) and Minimal Bactericidal Concentration (MBC) of Triafluocyl (Cayman Chemical, Item No. 15425) in presence of polymyxin B nonapeptide (PMBN) (Sigma-Aldrich Merk, Item No. P2076) against Escherichia coli (ATCC 8739). […] A single colony grown on a Luria-Bertani Agar (LB) plate was resuspended and cultured in LB medium overnight (O/N) in aerobic conditions (37° C. with 220 rpm shaking), next day a 1:50 inoculum in Mueller-Hinton broth (MHB) is incubated in aerobic conditions for 1 h30 (OD=0.08-0.1) and an inoculum corresponding to 3×10^6 colony forming unit (CFU)/ml, is incubated in presence or absence of different concentrations of Triafluocyl in 1% DMSO with or without 40 μg/ml Polymyxin B nonapeptide (PMBN) for 18 hr in aerobic conditions (37° C. with 220 rpm shaking). Growth of Escherichia coli in 7 conditions depicted in FIG. 11 is evaluated by reading the OD of each culture at 600 nm (OD600) in a spectrophotometer (Victor 3-Perkin Elmer). Determination of Minimal Inhibitory Concentration (MIC) and Minimal Bactericidal Concentration (MBC) of Fluometacyl in presence of polymyxin B nonapeptide (PMBN) (Sigma-Aldrich Merk, Item No. P2076) against Escherichia coli (ATCC 8739). The Minimal Inhibitory Concentration (MIC) represents the concentration, in a liquid culture, at which there is no visible growth of bacteria (no pellet or cloudiness), i.e. ΔOD at 600 nm equal to zero wherein ΔOD is the difference between the resulting optical density (OD) with the molecule together with PMBN, and the optical density (OD) of the blank (blank is the medium alone). A single colony grown on a Luria-Bertani Agar (LB) plate is resuspended and cultured in LB medium overnight (O/N) in aerobic conditions (37° C. with 220 rpm shaking), next day a 1:50 inoculum in Mueller-Hinton broth (MHB) is incubated in aerobic conditions for 1 h30 (OD=0.08-0.1) and an inoculum corresponding to 3×10^6 colony forming unit (CFU)/ml is incubated in presence or absence of different concentrations of Fluometacyl in 1% DMSO (vehicle) with or without 40 μg/ml Polymyxin B nonapeptide (PMBN) for 18 hr in aerobic conditions (37° C. with 220 rpm shaking). Growth of bacteria in the 7 individual cultures (FIG. 12A) is evaluated by reading the OD of each culture at 600 nm (OD600) in a spectrophotometer (Victor 3-Perkin Elmer).

In assay [1], `CCCSc1nc(N[C@@H]2C[C@H]2c2ccc(F)c(F)c2)c2nnn([C@@H]3C[C@H](O)[C@@H](O)[C@H]3O)c2n1` [Fluometacyl, (1S,2R,3S,4R)-4-[7-[[(1R,2S)-2-(3,4-Difluorophenyl)cyclopropyl]amino]-5-(propylthio)-3H-1,2,3-triazolo[4,5-d]pyrimidin-3-yl]-1,2,3-cyclopentanetriol] had an MIC of 38 µM. Also, in assay [2], the MIC amounted to 5 µg/mL and the “inhibition of E. coli growth” value is given as “unable to inhibit E. coli growth”.

For the compound `CCCSc1nc(N[C@@H]2C[C@H]2c2ccc(F)c(F)c2)c2nnn([C@@H]3C[C@H](OCCO)[C@@H](O)[C@H]3O)c2n1` [Triafluocyl, (1S,2S,3R,5S)-3-[7-[(1R,2S)-2-(3,4-difluorophenyl)cyclopropylamino]-5-(propylthio)-3H-[1,2,3]-triazolo[4,5-d]pyrimidin-3-yl]-5-(2-hydroxyethoxy)-1,2-cyclopentanediol], the MIC worked out at 20 µg/mL in assay [1] and 5 µg/mL in assay [2]. Besides, the “inhibition of E. coli growth” value in assay [2] was “unable to inhibit E. coli growth”.

The term MIC denotes the lowest concentration found to suppress growth.
